The test has as its target T1, Human CaV2.2 channels (Homo sapiens, UniProt Q00975).
T1 construct: expressed in transfected cells; Kir2.3 also stably co-expressed
As to the kind of experiment: Fluorescence assay for CaV2.2 channels using potassium depolarization to induce channel opening (FLIPR, Fluo 4). The class given is cell-based. The conditions noted are these: 30 mM KCl assay buffer (inactivated channel state), HEK293 cells; for inhibition at 3 µM: HEK293, 3 μM test compound, read-out: Activity Category: %-Inhib (CaV2.2) @3 μM @30 mM KCl; for Activity Category: %-Inhib (CaV2.2) @3 μM @30 mM KCl: 3 μM test compound. An excerpt:
In the process, the Ca^2+ influx is quantified in the FLIPR assay with the aid of a Ca^2+-sensitive dye (type Fluo-4, Molecular Probes Europe BV, Leiden, the Netherlands) in a fluorescent imaging plate reader (FLIPR 3, Molecular Devices, Sunnyvale, USA), as described hereinafter.
Human CaV2.2 channels were stably expressed in HEK293 cells together with alpha2-delta and beta subunits of voltage gated calcium channels. In addition, an inwardly rectifying potassium channel (Kir2.3) was stably expressed in these cells to augment control of the cell membrane potential by the concentration of extracellular potassium ions. Raise of the extracellular potassium concentration leads to depolarization of the membrane potential and thus regulates the voltage dependent state of CaV2.2 channels. For preparation, cells were seeded in black poly-D-lysine coated 96-well plates (Becton Dickinson, Biocoat 4640) in 100 μL medium [500 mL DMEM/F-12 plus Glutamax (Invitrogen 31331-093) plus 5.5 mL MEM NEAA 100× (Invitrogen 11140-035) plus 50 mL FBS decomplemented (Invitrogen 10270-106) plus 200 μg/mL Geneticin (Invitrogen 10131-027) plus 50 μg/mL Hygromycin B (Invitrogen 10687-010) plus 2 μg/mL Blasticidin (anti-bl5b Invivo-Gen) plus 0.2 μg/mL Puromycin (A 11138-03)] at a cell density of 30.000 cells per well. Plates were incubated at 37° C. (5% CO2) for 20 to 23 h. On the day of experiment medium was discarded and cells were loaded with Fluo 4 by addition of 100 μL of basic assay buffer (10 mM HEPES, 1 mM KCl, 149 mM NaCl, 0.8 mM CaCl2, 1.7 mM MgCl2, 10 mM Glucose, 0.1% BSA. pH 7.4) containing 2 μM Fluo 4 (Molecular Probes; F-14201), 0.01% pluronic acid (Molecular Probes; P-6866) and 2.5 mM probenecid (Molecular Probes; P36400). Cells were incubated in the dark at 25° C. for 60 min. Then dye containing buffer was discarded and 100 μL basic (1 mM KCl) or alternative (30 mM KCl) assay buffer was added. The alternative assay buffer contained altered concentrations of KCl (30 mM) and NaCl (120 mM) and was used in order to promote the inactivated channel state. After that 25 μL of basic or alternative assay buffer with or without test compound were added and cells were incubated again in the dark at 25° C. for 15 min. Fluorescence intensity was measured on a FLIPR 3 instrument (Molecular Devices Corp., Sunnyvale, Calif.) with excitation at 480 nm and emission at 535 nm. After continuously reading fluorescence for 30 sec, 50 μL of basic assay buffer containing 210 mM KCl (NaCl omitted) were added for depolarization. Peak fluorescent signal intensity was determined and the amplitude of the peak signal, normalized to base line, was used to measure channel inhibition by test compounds.

Here are results for 26 molecules from US9896440B2, “Aryl substituted heterocyclyl sulfones” (GRÜNENTHAL GMBH, priority 2014, dated 2018).

T1 sequence (Q00975 whole entry): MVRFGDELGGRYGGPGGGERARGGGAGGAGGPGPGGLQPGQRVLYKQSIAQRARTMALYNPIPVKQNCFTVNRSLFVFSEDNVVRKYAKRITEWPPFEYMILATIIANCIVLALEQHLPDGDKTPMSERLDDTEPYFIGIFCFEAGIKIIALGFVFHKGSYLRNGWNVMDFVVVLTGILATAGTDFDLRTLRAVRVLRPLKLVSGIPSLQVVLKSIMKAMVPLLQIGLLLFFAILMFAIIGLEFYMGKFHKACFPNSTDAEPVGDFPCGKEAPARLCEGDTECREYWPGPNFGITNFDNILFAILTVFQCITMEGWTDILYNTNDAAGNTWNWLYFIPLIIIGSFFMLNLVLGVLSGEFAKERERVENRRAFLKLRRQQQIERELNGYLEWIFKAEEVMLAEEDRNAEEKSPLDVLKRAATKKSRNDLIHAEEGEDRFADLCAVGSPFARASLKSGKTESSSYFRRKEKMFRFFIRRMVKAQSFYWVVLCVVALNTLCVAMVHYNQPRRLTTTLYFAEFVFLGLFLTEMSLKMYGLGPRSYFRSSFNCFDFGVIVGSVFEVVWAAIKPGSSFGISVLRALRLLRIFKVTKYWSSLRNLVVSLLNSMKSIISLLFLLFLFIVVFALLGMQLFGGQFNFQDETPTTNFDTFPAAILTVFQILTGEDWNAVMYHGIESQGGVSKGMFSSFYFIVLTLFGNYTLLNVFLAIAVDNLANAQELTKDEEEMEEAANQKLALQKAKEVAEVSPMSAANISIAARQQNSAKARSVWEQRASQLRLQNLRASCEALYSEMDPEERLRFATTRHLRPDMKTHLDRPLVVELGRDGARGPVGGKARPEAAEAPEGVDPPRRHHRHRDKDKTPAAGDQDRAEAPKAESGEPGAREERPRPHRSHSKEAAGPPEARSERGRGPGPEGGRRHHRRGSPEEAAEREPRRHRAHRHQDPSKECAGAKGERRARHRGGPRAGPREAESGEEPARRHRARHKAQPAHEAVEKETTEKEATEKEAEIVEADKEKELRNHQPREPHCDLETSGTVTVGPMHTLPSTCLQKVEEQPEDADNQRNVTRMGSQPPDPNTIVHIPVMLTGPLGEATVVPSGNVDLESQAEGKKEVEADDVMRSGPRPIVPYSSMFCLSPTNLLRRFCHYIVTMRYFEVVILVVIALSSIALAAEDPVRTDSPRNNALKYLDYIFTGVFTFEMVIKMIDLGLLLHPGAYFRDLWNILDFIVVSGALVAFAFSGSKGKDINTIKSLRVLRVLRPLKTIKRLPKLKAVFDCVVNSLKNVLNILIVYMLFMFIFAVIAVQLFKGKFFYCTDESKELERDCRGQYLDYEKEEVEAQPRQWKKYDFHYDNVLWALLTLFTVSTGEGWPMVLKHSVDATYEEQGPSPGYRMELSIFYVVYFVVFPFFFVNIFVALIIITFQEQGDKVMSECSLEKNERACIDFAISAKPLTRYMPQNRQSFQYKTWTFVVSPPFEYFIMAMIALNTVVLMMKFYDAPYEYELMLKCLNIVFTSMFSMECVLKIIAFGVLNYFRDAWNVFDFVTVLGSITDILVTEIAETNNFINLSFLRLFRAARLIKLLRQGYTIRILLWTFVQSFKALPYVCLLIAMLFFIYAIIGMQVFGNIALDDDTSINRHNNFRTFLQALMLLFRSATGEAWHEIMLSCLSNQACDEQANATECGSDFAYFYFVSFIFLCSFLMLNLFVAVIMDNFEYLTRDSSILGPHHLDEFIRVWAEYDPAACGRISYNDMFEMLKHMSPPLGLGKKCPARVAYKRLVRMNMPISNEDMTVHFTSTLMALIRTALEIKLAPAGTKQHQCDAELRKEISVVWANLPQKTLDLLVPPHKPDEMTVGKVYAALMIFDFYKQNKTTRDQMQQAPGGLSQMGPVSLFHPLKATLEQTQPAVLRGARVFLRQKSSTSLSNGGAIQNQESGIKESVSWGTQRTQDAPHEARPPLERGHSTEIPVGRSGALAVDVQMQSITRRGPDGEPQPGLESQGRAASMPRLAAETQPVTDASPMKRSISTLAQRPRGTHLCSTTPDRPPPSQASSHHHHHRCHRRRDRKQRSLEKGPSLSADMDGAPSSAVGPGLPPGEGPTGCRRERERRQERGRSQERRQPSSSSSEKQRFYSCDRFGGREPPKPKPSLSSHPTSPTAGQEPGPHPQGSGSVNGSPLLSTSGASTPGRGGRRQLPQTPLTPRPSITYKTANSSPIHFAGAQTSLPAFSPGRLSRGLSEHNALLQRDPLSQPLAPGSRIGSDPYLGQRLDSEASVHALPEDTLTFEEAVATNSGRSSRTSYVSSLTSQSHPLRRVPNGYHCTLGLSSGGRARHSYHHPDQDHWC

Consider `CC1(S(=O)(=O)c2cccc(C(F)(F)F)c2)CCOC(COc2ccc(S(C)(=O)=O)c(F)c2)C1` (single isomer, unassigned) [SC-150, 2-[(3-Fluoro-4-methylsulfonyl-phenoxy)-methyl]-4-methyl-4-[[3-(trifluoromethyl)phenyl]sulfonyl]-tetrahydro-pyran], for which the inhibition at 3 µM is 75 to 95%.
As to `CC1(S(=O)(=O)c2cccc(C(F)(F)F)c2)CCOC(COc2ccc(S(C)(=O)=O)c(F)c2)C1` (single isomer, unassigned) [SC-151, 2-[(3-Fluoro-4-methylsulfonyl-phenoxy)-methyl]-4-methyl-4-[[3-(trifluoromethyl)phenyl]sulfonyl]-tetrahydro-pyran], the “Activity Category: %-Inhib (CaV2.2) @3 μM @30 mM KCl” value (from here on “Activity Category: %-Inhib”) is recorded as “A (%-Inhibition >95%)”.
As to `CC1(S(=O)(=O)c2cccc(C(F)(F)F)c2)COC(c2ccc(Cl)cc2)C1` (centres unmarked) [SC-100, 2-(4-Chlorophenyl)-4-methyl-4-[[3-(trifluoromethyl)phenyl]sulfonyl]-tetrahydro-furan], the inhibition at 3 µM is 75 to 95%.
As for `CC1(S(=O)(=O)c2cccc(C(F)(F)F)c2)COC(c2ccc(Cl)cc2)C1` (centres unmarked) [SC-101, 2-(4-Chlorophenyl)-4-methyl-4-[[3-(trifluoromethyl)phenyl]sulfonyl]-tetrahydro-furan], the “Activity Category: %-Inhib” value was “A (%-Inhibition >95%)”.
Turning to `CC1(S(=O)(=O)c2cccc(C(F)(F)F)c2)COC(c2ccc(Cl)cc2)C1` (centres unmarked) [SC-102, 2-(4-Chlorophenyl)-4-methyl-4-[[3-(trifluoromethyl)phenyl]sulfonyl]-tetrahydro-furan], the “Activity Category: %-Inhib” value is “B (%-Inhibition >75% up to ≦95%)”.
In the case of `CC1(S(=O)(=O)c2cccc(C(F)(F)F)c2)COC(c2ccc(Cl)cc2)C1` (centres unmarked) [SC-103, 2-(4-Chlorophenyl)-4-methyl-4-[[3-(trifluoromethyl)phenyl]sulfonyl]-tetrahydro-furan], the “Activity Category: %-Inhib” value is reported as “A (%-Inhibition >95%)”.
As to `CC1(S(=O)(=O)c2cccc(C(F)(F)F)n2)CCOC(c2ccc(Cl)cc2)C1` (centres unmarked) [SC-104, 2-[[2-(4-Chlorophenyl)-4-methyl-tetrahydro-pyran-4-yl]sulfonyl]-6-(trifluoromethyl)-pyridine], the inhibition at 3 µM is 75 to 95%.
On to `CC1(S(=O)(=O)c2cccc(C(F)(F)F)n2)CCOC(c2ccc(Cl)cc2)C1` (centres unmarked) [SC-105, 2-[[2-(4-Chlorophenyl)-4-methyl-tetrahydro-pyran-4-yl]sulfonyl]-6-(trifluoromethyl)-pyridine], for which the “Activity Category: %-Inhib” value is reported as “A (%-Inhibition >95%)”.
Take `CC1(S(=O)(=O)c2cccc(C(F)(F)F)n2)CCOC(c2ccc(Cl)cc2)C1` (centres unmarked) [SC-106, 2-[[2-(4-Chlorophenyl)-4-methyl-tetrahydro-pyran-4-yl]sulfonyl]-6-(trifluoromethyl)-pyridine]: the “Activity Category: %-Inhib” value was “B (%-Inhibition >75% up to ≦95%)”.
In the case of `CC1(S(=O)(=O)c2cccc(C(F)(F)F)n2)CCOC(c2ccc(Cl)cc2)C1` (centres unmarked) [SC-107, 2-[[2-(4-Chlorophenyl)-4-methyl-tetrahydro-pyran-4-yl]sulfonyl]-6-(trifluoromethyl)-pyridine], the “Activity Category: %-Inhib” value is “B (%-Inhibition >75% up to ≦95%)”.
For `Cc1ccc(C(F)(F)F)cc1S(=O)(=O)C1CCOC(c2ccc(Cl)cc2)C1` (centres unmarked) [SC-108, 2-(4-Chlorophenyl)-4-((2-methyl-5-(trifluoromethyl)phenyl)sulfonyl)tetrahydro-2H-pyran], the inhibition at 3 µM fell in the range of 75 to 95%.
Turning to `CCc1ccc(C(F)(F)F)cc1S(=O)(=O)C1CCOC(c2ccc(Cl)cc2)C1` (centres unmarked) [SC-110, 2-(4-Chlorophenyl)-4-[[2-ethyl-5-(trifluoromethyl)-phenyl]sulfonyl]-tetrahydro-pyran], the “Activity Category: %-Inhib” value is listed as “B (%-Inhibition >75% up to ≦95%)”.
On the same count and under the same terms, to `CCc1ccc(C(F)(F)F)cc1S(=O)(=O)C1CCOC(c2ccc(Cl)cc2)C1` (centres unmarked) [SC-111, 2-(4-Chlorophenyl)-4-[[2-ethyl-5-(trifluoromethyl)-phenyl]sulfonyl]-tetrahydro-pyran] belongs “C (%-Inhibition >40% up to ≦75%)”.
Regarding `CC1(S(=O)(=O)c2cccc(C(F)(F)F)c2)CCOC(c2ccc(S(C)(=O)=O)cc2)C1` (centres unmarked) [SC-112, 4-Methyl-2-(4-methylsulfonyl-phenyl)-4-[[3-(trifluoromethyl)phenyl]sulfonyl]-tetrahydro-pyran], the inhibition at 3 µM is over 95%.
Turning to `CC1(S(=O)(=O)c2cccc(C(F)(F)F)c2)CCOC(c2ccc(S(C)(=O)=O)cc2)C1` (centres unmarked) [SC-113, 4-Methyl-2-(4-methylsulfonyl-phenyl)-4-[[3-(trifluoromethyl)phenyl]sulfonyl]-tetrahydro-pyran], the “Activity Category: %-Inhib” value was “B (%-Inhibition >75% up to ≦95%)”.
As for `CC1(S(=O)(=O)c2cccc(C(F)(F)F)c2)CCOC(c2ccc(Cl)cc2S(C)(=O)=O)C1` (centres unmarked) [SC-114, 2-(4-Chloro-2-methylsulfonyl-phenyl)-4-methyl-4-[[3-(trifluoromethyl)phenyl]sulfonyl]-tetrahydro-pyran], the inhibition at 3 µM lay in the range of 75 to 95%.
Consider `CC1(S(=O)(=O)c2cccc(C(F)(F)F)c2)CCOC(c2ccc(Cl)cc2S(C)(=O)=O)C1` (centres unmarked) [SC-115, 2-(4-Chloro-2-methylsulfonyl-phenyl)-4-methyl-4-[[3-(trifluoromethyl)phenyl]sulfonyl]-tetrahydro-pyran], for which the “Activity Category: %-Inhib” value is “A (%-Inhibition >95%)”.
Turning to `CC(C)c1ccc(C(F)(F)F)cc1S(=O)(=O)C1CCOC(c2ccc(Cl)cc2)C1` (centres unmarked) [SC-118, 2-(4-Chlorophenyl)-4-[[2-isopropyl-5-(trifluoromethyl)-phenyl]sulfonyl]-tetrahydro-pyran], the inhibition at 3 µM was 40 to 75%.
On the same count and under the same terms, in the case of `CC1(S(=O)(=O)c2cccc(C(F)(F)F)c2)CCOCC1c1ccc(Cl)cc1` (centres unmarked) [SC-120, 3-(4-Chlorophenyl)-4-methyl-4-[[3-(trifluoromethyl)phenyl]sulfonyl]-tetrahydro-pyran] it was 75 to 95%; in that of `CC1(c2ccc(Cl)cc2)CC(S(=O)(=O)c2cccc(C(F)(F)F)c2)CCO1` (centres unmarked) [SC-140, 2-(4-Chlorophenyl)-2-methyl-4-[[3-(trifluoromethyl)phenyl]sulfonyl]-tetrahydro-pyran], 75 to 95%.
For the molecule `CC1(c2ccc(Cl)cc2)CC(S(=O)(=O)c2cccc(C(F)(F)F)c2)CCO1` (centres unmarked) [SC-141, 2-(4-Chlorophenyl)-2-methyl-4-[[3-(trifluoromethyl)phenyl]sulfonyl]-tetrahydro-pyran], the “Activity Category: %-Inhib” value is recorded as “A (%-Inhibition >95%)”.
Same read-out and setting: to `CC1(S(=O)(=O)c2cccc(C(F)(F)F)c2)CCOC(c2ccc(S(C)(=O)=O)c(F)c2)C1` (centres unmarked) [SC-144, 2-(3-Fluoro-4-methylsulfonyl-phenyl)-4-methyl-4-[[3-(trifluoromethyl)phenyl]sulfonyl]-tetrahydro-pyran] belongs “A (%-Inhibition >95%)”.
As to `Cc1ccc(S(C)(=O)=O)cc1C1CC(C)(S(=O)(=O)c2cccc(C(F)(F)F)c2)CCO1` (centres unmarked) [SC-200, 4-Methyl-2-(2-methyl-5-methylsulfonyl-phenyl)-4-[[3-(trifluoromethyl)phenyl]sulfonyl]-tetrahydro-pyran], the inhibition at 3 µM was in the range of 75 to 95%.
In the case of `CC1(S(=O)(=O)c2cccc(C(F)(F)F)c2)CCOC(c2cc(C(F)(F)F)cc(S(C)(=O)=O)c2)C1` (centres unmarked) [SC-202, 4-Methyl-2-[3-methylsulfonyl-5-(trifluoromethyl)-phenyl]-4-[[3-(trifluoromethyl)phenyl]sulfonyl]-tetrahydro-pyran], the inhibition at 3 µM was over 95%.
For `CC1(S(=O)(=O)c2cccc(C(F)(F)F)c2)CCOC(c2cc(F)ccc2S(C)(=O)=O)C1` (centres unmarked) [SC-204, 2-(5-Fluoro-2-methylsulfonyl-phenyl)-4-methyl-4-[[3-(trifluoromethyl)phenyl]sulfonyl]-tetrahydro-pyran], the “Activity Category: %-Inhib” value is recorded as “A (%-Inhibition >95%)”.
`CC1(S(=O)(=O)c2cccc(C(F)(F)F)c2)CCOC(c2cc(F)ccc2S(C)(=O)=O)C1` (centres unmarked) [SC-205, 2-(5-Fluoro-2-methylsulfonyl-phenyl)-4-methyl-4-[[3-(trifluoromethyl)phenyl]sulfonyl]-tetrahydro-pyran]: the inhibition at 3 µM was in the range of 75 to 95%.
